Key:
[1] = biological target: T1, plasma kallikrein (Homo sapiens, UniProt P03952); test: Neat human plasma assay, FXIIa contact pathway-activated, PFR-AMC substrate; format: biochemical; conditions: citrated human plasma 78% final, 10 nM human FXIIa, 100 μM PFR-AMC; read-out: Human Plasma Assay: IC90
T1 construct: from tissue
Summary of the method: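 Compound inhibition of plasma kallikrein measured as PFR-AMC (100 μM) cleavage rate over 5 min at room temperature in 78% citrated human plasma activated with 10 nM FXIIa (Tris pH 7.5 buffer). IC50/IC90 from 4-parameter fit of rate versus inhibitor concentration.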

[2] = biological target: human activated kallikrein enzyme (Homo sapiens, UniProt P03952); test: Plasma kallikrein inhibition, fluorogenic PFR-AMC substrate, 500 pM activated kallikrein format; format: biochemical; conditions: 500 pM activated kallikrein, 300 uM PFR-AMC, 30 min preincubation, 10 min reaction; read-out: Primary Dose Response Assay: Average EC50
Summary of the method: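 Fluorescence (ex 380/em 460 nm) is read after 10 min of 300 uM PFR-AMC turnover by 500 pM enzyme at RT. Compounds sit with enzyme for 30 min beforehand. Buffer is Tris (pH 7.5) with EDTA, NaCl, PEG-400 and Triton X-100; EC50 values are banded.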

T1 sequence (P03952 391-638 limits assumed): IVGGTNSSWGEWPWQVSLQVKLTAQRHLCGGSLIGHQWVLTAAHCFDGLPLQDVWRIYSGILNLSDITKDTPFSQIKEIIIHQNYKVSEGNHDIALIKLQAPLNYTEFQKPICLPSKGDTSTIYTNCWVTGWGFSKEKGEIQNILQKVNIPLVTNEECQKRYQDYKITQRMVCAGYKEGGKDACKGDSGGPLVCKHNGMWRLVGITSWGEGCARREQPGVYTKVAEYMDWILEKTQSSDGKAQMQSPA
T1 sequence (P03952 20-390 partner limits assumed): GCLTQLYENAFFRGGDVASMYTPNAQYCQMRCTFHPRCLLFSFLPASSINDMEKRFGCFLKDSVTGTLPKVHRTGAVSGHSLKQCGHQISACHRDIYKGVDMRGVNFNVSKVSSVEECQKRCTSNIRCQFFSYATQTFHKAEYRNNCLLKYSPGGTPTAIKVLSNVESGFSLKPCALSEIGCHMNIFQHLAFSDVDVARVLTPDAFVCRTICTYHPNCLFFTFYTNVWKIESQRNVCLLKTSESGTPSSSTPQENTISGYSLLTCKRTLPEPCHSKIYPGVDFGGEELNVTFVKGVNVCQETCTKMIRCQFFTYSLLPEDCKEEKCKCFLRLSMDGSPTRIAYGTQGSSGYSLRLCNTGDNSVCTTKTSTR
Sequence of human activated kallikrein enzyme (P03952 391-638 limits assumed): as the sequence (P03952 391-638 limits assumed) above
Sequence of human activated kallikrein enzyme (P03952 20-390 partner limits assumed): as the sequence (P03952 20-390 partner limits assumed) above

`O=C(Nc1cc(NCc2cn3cc(C4CC4)cc(C4(F)COC4)c3n2)ccn1)[C@H]1C[C@@H]1c1cccc(Cl)c1` (racemic) [Example 294, rac-(1S*,2S*)-2-(3-chlorophenyl)-N-(4-(((6-cyclopropyl-8-(3-fluorooxetan-3-yl)imidazo[1,2-a]pyridin-2-yl)methyl)amino)pyridin-2-yl)cyclopropane-1-carboxamide] was tested, and the IC90 [1] was 10000 to 48000 nM and the EC50 [2] was < 1 nM.
For `Cc1ccnc([C@H]2C[C@@H]2C(=O)Nc2cc(OC(C)c3cn4cc(C5CC5)cc(N5CC(=O)N(C)C5=O)c4n3)nc(C)n2)n1` (stereo partly drawn) [Example 552, (1S,2S)-N-(6-(1-(6-cyclopropyl-8-(3-methyl-2,4-dioxoimidazolidin-1-yl)imidazo[1,2-a]pyridin-2-yl)ethoxy)-2-methylpyrimidin-4-yl)-2-(4-methylpyrimidin-2-yl)cyclopropane-1-carboxamide], the IC90 [1] was 1500 to 10000 nM and the EC50 [2] was < 1 nM.
`CN1CC(c2cc(C3CC3)cn3cc(CNc4ccnc(NC(=O)[C@H]5C[C@@H]5c5cccc(Cl)c5)c4)nc23)C1` [Example 609, (1S,2S)-2-(3-chlorophenyl)-N-(4-(((6-cyclopropyl-8-(1-methylazetidin-3-yl)imidazo[1,2-a]pyridin-2-yl)methyl)amino)pyridin-2-yl)cyclopropane-1-carboxamide] was tested, and the IC90 [1] was < 400 nM and the EC50 [2] was < 1 nM.
With `Cc1ccnc([C@H]2C[C@@H]2C(=O)Nc2ncc(F)c(NCc3cn4cc(C5CC5)cc(N5CC(=O)N(CCO)C5=O)c4n3)n2)n1` (racemic) [Example 540, rac-(1S*,2S*)—N-(4-(((6-cyclopropyl-8-(3-(2-hydroxyethyl)-2,4-dioxoimidazolidin-1-yl)imidazo[1,2-a]pyridin-2-yl)methyl)amino)-5-fluoropyrimidin-2-yl)-2-(4-methylpyrimidin-2-yl)cyclopropane-1-carboxamide] the IC90 [1] was < 400 nM and the EC50 [2] was < 1 nM.
For `O=C(Nc1nsc(NCc2cn3cc(C4CC4)ccc3n2)n1)[C@H]1C[C@@H]1c1cccc(Cl)c1` [Example 610, (1S,2S)-2-(3-chlorophenyl)-N-(5-(((6-cyclopropylimidazo[1,2-a]pyridin-2-yl)methyl)amino)-1,2,4-thiadiazol-3-yl)cyclopropane-1-carboxamide], the IC90 [1] was 10000 to 48000 nM and the EC50 [2] was 1 to 10 nM.
With `Cc1ccnc([C@H]2C[C@@H]2C(=O)Nc2cc(N[C@H](C)c3cn4cc(C5CC5)cc(N5CCCC5=O)c4n3)ncn2)n1` [Example 418, (1S,2S)-N-(6-(((R)-1-(6-cyclopropyl-8-(2-oxopyrrolidin-1-yl)imidazo[1,2-a]pyridin-2-yl)ethyl)amino)pyrimidin-4-yl)-2-(4-methylpyrimidin-2-yl)cyclopropane-1-carboxamide] the IC90 [1] was < 400 nM and the EC50 [2] was < 1 nM.
`CCN1C(=O)CN(c2cc(C3CC3)cn3cc(CNc4cc(NC(=O)[C@H]5C[C@@H]5c5nccc(C)n5)ncn4)nc23)C1=O` [Example 385, (1S,2S)-N-(6-(((6-cyclopropyl-8-(3-ethyl-2,4-dioxoimidazolidin-1-yl)imidazo[1,2-a]pyridin-2-yl)methyl)amino)pyrimidin-4-yl)-2-(4-methylpyrimidin-2-yl)cyclopropane-1-carboxamide] was tested, and the IC90 [1] was < 400 nM and the EC50 [2] was < 1 nM.
`CN1CCN(c2cc(C3CC3)cn3cc(CNc4cc(NC(=O)[C@H]5C[C@@H]5c5cc(Cl)ccn5)ncn4)nc23)C(=O)C1` (racemic) [Example I-195, rac-(1S*,2S*)-2-(4-chloropyridin-2-yl)-N-(6-(((6-cyclopropyl-8-(4-methyl-2-oxopiperazin-1-yl)imidazo[1,2-a]pyridin-2-yl)methyl)amino)pyrimidin-4-yl)cyclopropane-1-carboxamide] was tested, and the IC90 [1] was 400 to 1500 nM and the EC50 [2] was < 1 nM.
For `CC(=O)c1cc(C2CC2)cn2cc(CNc3cc(NC(=O)[C@H]4C[C@@H]4c4cccc(Cl)c4)ncn3)nc12` [Example I-207, (1S,2S)-N-(6-(((8-acetyl-6-cyclopropylimidazo[1,2-a]pyridin-2-yl)methyl)amino)pyrimidin-4-yl)-2-(3-chlorophenyl)cyclopropane-1-carboxamide], the IC90 [1] was 1500 to 10000 nM and the EC50 [2] was 1 to 10 nM.
In the case of `CN(C)C1CN(c2cc(C3CC3)cn3cc(CNc4ccnc(NC(=O)[C@H]5C[C@@H]5c5cccc(Cl)c5)c4)nc23)C1` [Example I-4, (1S,2S)-2-(3-chlorophenyl)-N-(4-(((6-cyclopropyl-8-(3-(dimethylamino)azetidin-1-yl)imidazo[1,2-a]pyridin-2-yl)methyl)amino)pyridin-2-yl)cyclopropane-1-carboxamide], the IC90 [1] is reported as 1500 to 10000 nM and the EC50 [2] is reported as < 1 nM.
`COc1cnc(NC(=O)[C@H]2C[C@@H]2c2nccc(C)n2)nc1NCc1cn2cc(C3CC3)cc(N3CC(=O)N(C)C3=O)c2n1` (racemic) [Example I-244, rac-(1S*,2S*)-N-(4-(((6-cyclopropyl-8-(3-methyl-2,4-dioxoimidazolidin-1-yl)imidazo[1,2-a]pyridin-2-yl)methyl)amino)-5-methoxypyrimidin-2-yl)-2-(4-methylpyrimidin-2-yl)cyclopropane-1-carboxamide] was tested, and the IC90 [1] was < 400 nM and the EC50 [2] was < 1 nM.
`Cc1ccnc([C@H]2C[C@@H]2C(=O)Nc2cc(NCc3cn4cc(C5CC5)cc(N5CC(=O)N(C)C5=O)c4n3)nc(C)n2)n1` [Example 365, (1S,2S)-N-(6-(((6-cyclopropyl-8-(3-methyl-2,4-dioxoimidazolidin-1-yl)imidazo[1,2-a]pyridin-2-yl)methyl)amino)-2-methylpyrimidin-4-yl)-2-(4-methylpyrimidin-2-yl)cyclopropane-1-carboxamide] was tested, and the IC90 [1] was < 400 nM and the EC50 [2] was < 1 nM.
With `O=C(Nc1cc(NCc2cn3cc(C4CC4)cc(N4CCNCC4)c3n2)ncn1)[C@H]1C[C@@H]1c1cccc(Cl)c1` [Example 307, (1S,2S)-2-(3-chlorophenyl)-N-(6-(((6-cyclopropyl-8-(piperazin-1-yl)imidazo[1,2-a]pyridin-2-yl)methyl)amino)pyrimidin-4-yl)cyclopropane-1-carboxamide] the IC90 [1] was < 400 nM and the EC50 [2] was < 1 nM.
In the case of `CN1C(=O)CN(c2cc(C3CC3)cn3cc(CNc4cc(NC(=O)[C@H]5C[C@@H]5c5nc(Cl)ccc5C#N)ncn4)nc23)C1=O` (racemic) [Example I-167, rac-(1S*,2S*)-2-(6-chloro-3-cyanopyridin-2-yl)-N-(6-(((6-cyclopropyl-8-(3-methyl-2,4-dioxoimidazolidin-1-yl)imidazo[1,2-a]pyridin-2-yl)methyl)amino)pyrimidin-4-yl)cyclopropane-1-carboxamide], the IC90 [1] is reported as 400 to 1500 nM and the EC50 [2] is reported as < 1 nM.
`CN1CCC(O)(c2cc(C3CC3)cn3cc(CNc4ccnc(NC(=O)[C@H]5C[C@@H]5c5cccc(Cl)c5)c4)nc23)CC1` [Example 488, (1S,2S)-2-(3-chlorophenyl)-N-(4-(((6-cyclopropyl-8-(4-hydroxy-1-methylpiperidin-4-yl)imidazo[1,2-a]pyridin-2-yl)methyl)amino)pyridin-2-yl)cyclopropane-1-carboxamide] was tested, and the IC90 [1] was 400 to 1500 nM and the EC50 [2] was < 1 nM.
In the case of `COC(=O)CCc1cc(C2CC2)cn2cc(CNc3ccnc(NC(=O)[C@H]4C[C@@H]4c4cccc(Cl)c4)c3)nc12` [Example I-239, methyl 3-(2-(((2-((1S,2S)-2-(3-chlorophenyl)cyclopropane-1-carboxamido)pyridin-4-yl)amino)methyl)-6-cyclopropylimidazo[1,2-a]pyridin-8-yl)propanoate], the IC90 [1] is reported as 1500 to 10000 nM and the EC50 [2] is reported as < 1 nM.
In the case of `Cc1ccnc([C@H]2C[C@@H]2C(=O)Nc2nc(C)nc(OCc3cn4cc(C5CC5)cc(N5CC(=O)N(C)C5=O)c4n3)n2)n1` [Example 573, (1S,2S)—N-(4-((6-cyclopropyl-8-(3-methyl-2,4-dioxoimidazolidin-1-yl)imidazo[1,2-a]pyridin-2-yl)methoxy)-6-methyl-1,3,5-triazin-2-yl)-2-(4-methylpyrimidin-2-yl)cyclopropane-1-carboxamide], the IC90 [1] is reported as 400 to 1500 nM and the EC50 [2] is reported as < 1 nM.
In the case of `O=C1CN(c2cc(C3CC3)cn3cc(CNc4cc(NC(=O)[C@H]5C[C@@H]5c5cc(Cl)ccn5)ncn4)nc23)C(=O)N1` [Example 395, (1S,2S)-2-(4-chloropyridin-2-yl)-N-(6-(((6-cyclopropyl-8-(2,4-dioxoimidazolidin-1-yl)imidazo[1,2-a]pyridin-2-yl)methyl)amino)pyrimidin-4-yl)cyclopropane-1-carboxamide], the IC90 [1] is reported as < 400 nM and the EC50 [2] is reported as < 1 nM.
In the case of `Cc1ccnc([C@H]2C[C@@H]2C(=O)Nc2cc(N[C@H](C)c3cn4cc(C5CC5)cc(N5CC6(COC6)OC5=O)c4n3)nc(C)n2)n1` [Example 437, (1S,2S)-N-(6-(((R)-1-(6-cyclopropyl-8-(6-oxo-2,5-dioxa-7-azaspiro[3.4]octan-7-yl)imidazo[1,2-a]pyridin-2-yl)ethyl)amino)-2-methylpyrimidin-4-yl)-2-(4-methylpyrimidin-2-yl)cyclopropane-1-carboxamide], the IC90 [1] is reported as < 400 nM and the EC50 [2] is reported as < 1 nM.
For `Cc1ccnc([C@@H]2C[C@H]2C(=O)Nc2cc(OCc3cn4cc(C5CC5)cc(N5CC(=O)N(C)C5=O)c4n3)ncn2)n1` (racemic) [Example 28, rac-(1S*,2S*)—N-(6-((6-cyclopropyl-8-(3-methyl-2,4-dioxoimidazolidin-1-yl)imidazo[1,2-a]pyridin-2-yl)methoxy)pyrimidin-4-yl)-2-(4-methylpyrimidin-2-yl)cyclopropane-1-carboxamide], the IC90 [1] was 400 to 1500 nM and the EC50 [2] was < 1 nM.

— patent US20240228488A1 (TAKEDA PHARMACEUTICAL COMPANY LIMITED, priority 2021, published 2024)
